# Source: US10752612B2, “PLK4 inhibitors” (LUDWIG INSTITUTE FOR CANCER RESEARCH LTD, priority 2015, dated 2020)
# Biological target: T1, human Plk4 kinase domain (aa 2-275) (Homo sapiens, UniProt O00444)
# T1 construct: purified 6×His-tagged human Plk4 kinase domain (aa 2-275); 6xHis; made in house; host or cells: E. coli
# T1 sequence (O00444 2-275): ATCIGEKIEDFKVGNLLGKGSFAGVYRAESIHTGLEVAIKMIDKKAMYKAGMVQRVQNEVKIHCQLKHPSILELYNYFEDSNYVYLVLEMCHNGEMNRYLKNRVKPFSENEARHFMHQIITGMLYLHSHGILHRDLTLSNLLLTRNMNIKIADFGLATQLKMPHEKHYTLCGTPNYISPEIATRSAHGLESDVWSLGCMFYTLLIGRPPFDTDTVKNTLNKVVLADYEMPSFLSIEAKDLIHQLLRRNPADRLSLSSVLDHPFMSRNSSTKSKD
# Assay: Plk4 kinase assay (ADP-Glo)
# Assay type: biochemical
# Details: Table 1
# Experimental: Kinase assays. […] The Plk4 concentration in the final reaction was 2.5-10 nM with a final pH of 8.0. […] Reactions were allowed to proceed for 4-16 hours at 25° C. Detection was performed using ADP-Glo reagent (Promega), following manufacturer's instructions. Luminescence was measured on an Infinite M1000 plate reader (Tecan). Data were fit using Prism (GraphPad) and Kis were calculated from IC50 data using the Cheng and Prusoff equation (37) or the Copeland formalism for tight-binding inhibitors (38).
row,SMILES,IC50 [nM]
1,CC(=O)Nc1ccc(Sc2nc3c(c(Nc4cc(C)[nH]n4)n2)C(C)CC3)cc1 (stereo not shown),< 1000
2,Cc1cc(Nc2nc(Sc3ccc(S(=O)(=O)Cc4ccccc4)cc3)nc(N3CCN(CCN(C)C)CC3)c2OC(C)C)n[nH]1,< 1000
3,COc1c(Nc2cc(C)[nH]n2)nc(Sc2ccc(NC(C)=O)cc2)nc1N1CC=CCC1,< 1000
4,COc1c(Nc2cc(C)[nH]n2)nc(Sc2ccc(S(=O)(=O)Cc3cccc([N+](=O)[O-])c3F)cc2F)nc1N1CCOC[C@@H]1C,< 1000
5,COc1c(Nc2cc(C)[nH]n2)nc(Sc2ccc(NC(=O)C3CCCC3)cc2)nc1N1CCN(CCN(C)C)CC1,< 1000
6,COc1c(Nc2cc(C)[nH]n2)nc(Sc2ccc(S(=O)(=O)Cc3ccccc3C)cc2)nc1N1CCN(CCN(C)C)CC1,< 1000
7,COc1c(Nc2cc(C)[nH]n2)nc(Sc2ccc(S(=O)(=O)Cc3ccccc3)cc2)nc1N1CCN(CCN(C)C)CC1,< 1000
8,Cc1cc(Nc2nc(Sc3ccc(NC(=O)C4CC4)cc3)nc(N(C)C(C)C)c2C)n[nH]1,< 1000
9,COc1c(Nc2cc(C)[nH]n2)nc(Sc2ccc(S(=O)(=O)Cc3cccnc3)cc2)nc1N1CCN(CCN(C)C)CC1,< 1000
10,COc1c(Nc2cc(C)[nH]n2)nc(Sc2ccc(S(=O)(=O)C(C)(C)c3cccc([N+](=O)[O-])c3F)cc2F)nc1N1CCN(CC(=O)N(C)C)CC1,< 1000
11,CCOc1c(Nc2cc(C)[nH]n2)nc(Sc2ccc(NC(=O)C3CC3)cc2)nc1N1CCN(C(=O)CCN(C)C)CC1,100 to 1000
12,COc1c(Nc2cc(C)[nH]n2)nc(Sc2ccc(S(=O)(=O)Cc3c(F)ccc(F)c3F)cc2F)nc1N1CCN(CCN(C)C)CC1,< 1000
13,COc1c(NCCN(C)C)nc(Sc2ccc(NC(=O)C3CC3)cc2)nc1Nc1cc(C)[nH]n1,100 to 1000
14,Cc1cc(Nc2nc(Sc3ccc([N+](=O)[O-])cc3)nc3c2CCC32CCNCC2)n[nH]1,< 1000
15,COc1c(Nc2cc(C)[nH]n2)nc(Sc2ccc(S(=O)(=O)Cc3cccc([N+](=O)[O-])c3F)cc2)nc1N1CCC(O)CC1,< 1000
16,COc1c(Nc2cc(C)[nH]n2)nc(Sc2ccc(NC(C)=O)cc2)nc1N1CCN(CCN2C3CCCC2CC3)CC1,< 1000
17,CCS(=O)(=O)c1ccc(Sc2nc(C)c(OC)c(Nc3cc(C)[nH]n3)n2)cc1,< 1000
18,COc1c(Nc2cc(C)[nH]n2)nc(Sc2ccc(S(=O)(=O)Cc3c(F)c(F)cc(Cl)c3F)cc2F)nc1N1CCC(CCN(C)C)CC1,< 1000
19,COc1c(Nc2cc(C)[nH]n2)nc(Sc2ccc(S(=O)(=O)Cc3ccccc3Cl)cc2)nc1N1CCN(CCN(C)C)CC1,< 1000
20,COc1c(Nc2cc(C)[nH]n2)nc(Sc2ccc(S(=O)(=O)Cc3cccc(N)c3F)cc2F)nc1N1CCOCC1,< 1000
21,COc1c(Nc2cc(C)[nH]n2)nc(Sc2ccc(NC(C)=O)cc2)nc1C1CCN(CCN2CCN(C)CC2)CC1,< 1000
22,COc1c(Nc2cc(C)[nH]n2)nc(Sc2ccc(NC(C)=O)cc2)nc1N1CCN(CC(=O)O)CC1,< 1000
23,CC(=O)Nc1ccc(Sc2nc(Nc3cc(C)[nH]n3)c(C)c(N3CCN(C(C)C)CC3)n2)cc1,< 1000

row,SMILES,IC50 [nM]
1,CC(=O)Nc1ccc(Sc2nc(Nc3cc(C)[nH]n3)c(C)c(N3CCC(O)CC3C)n2)cc1 (stereo not shown),< 1000
2,CCS(=O)(=O)c1ccc(Sc2nc(Nc3cc(C)[nH]n3)c(OC)c(N3CCN(CCN(C)C)CC3)n2)c(F)c1,< 1000
3,COc1c(Nc2cc(C)[nH]n2)nc(Sc2ccc(S(=O)(=O)Cc3cccc([N+](=O)[O-])c3F)cc2F)nc1N1CCC(CCN(C)C)CC1,< 1000
4,COc1c(Nc2cc(C)[nH]n2)nc(Sc2ccc(NC(=O)C(F)(F)F)cc2)nc1N1CCN(CCN(C)C)CC1,< 1000
5,Cc1cc(Nc2nc(Sc3ccc(NC(=O)C4CCCC4)cc3)nc(N(C)C(C)C)c2C)n[nH]1,< 1000
6,CCNc1nc(Sc2ccc(NC(=O)C3CC3)cc2)nc(Nc2cc(C)[nH]n2)c1C,< 1000
7,CCOc1c(Nc2cc(C)[nH]n2)nc(Sc2ccc(NC(=O)C3CC3)cc2)nc1N1CCN(C(=O)CCOC)CC1,100 to 1000
8,CC(=O)Nc1ccc(Sc2nc(Nc3cc(C)[nH]n3)c(C)c(N3CCCCCC3)n2)cc1,< 1000
9,COc1c(Nc2cc(C)[nH]n2)nc(Sc2ccc(NC(C)=O)cc2)nc1N1CCC(CC(=O)N2CCCCC2)CC1,< 1000
10,CC(=O)Nc1ccc(Sc2nc(Nc3cc(C)[nH]n3)c(C)c(N3CCC(C(C)=O)CC3)n2)cc1,< 1000
11,Cc1cc(Nc2nc(Sc3ccc(NC(=O)C4CC4)cc3)nc(N3CCOCC3)c2C)n[nH]1,< 1000
12,CNC1CCN(c2nc(Sc3ccc(NC(C)=O)cc3)nc(Nc3cc(C)[nH]n3)c2C)CC1,< 1000
13,CNCC(=O)N1CCN(c2nc(Sc3ccc(NC(C)=O)cc3)nc(Nc3cc(C)[nH]n3)c2C)CC1,< 1000
14,COc1c(Nc2ncc(C)s2)nc(Sc2ccc(NC(C)=O)cc2)nc1N1CCN(CCN(C)C)CC1,< 1000
15,COc1c(Nc2cc(C)[nH]n2)nc(Sc2ccc(S(=O)(=O)Cc3ccc(Cl)cc3)cc2)nc1N1CCN(CCN(C)C)CC1,< 1000
16,COc1c(Nc2cc(C)[nH]n2)nc(Sc2ccc(NC(=O)C3CCCC3)cc2)nc1N1CCN(C)CC1,< 1000
17,CCOc1c(Nc2cc(C)[nH]n2)nc(Sc2ccc(NC(=O)C3CC3)cc2)nc1N1CCOCC1,< 1000
18,CC(=O)Nc1ccc(Sc2nc(Nc3cc(C)[nH]n3)c(C)c(N3CCC(F)CC3)n2)cc1,< 1000
19,CCS(=O)(=O)c1ccc(Sc2nc(Nc3cc(C)[nH]n3)c(OC)c(N3CCOC[C@@H]3C)n2)c(Cl)c1,< 1000
20,COc1c(Nc2cc(C)[nH]n2)nc(Sc2cccc(NC(C)=O)c2)nc1N1CCN(CCN(C)C)CC1,< 1000
21,CCS(=O)(=O)c1ccc(Sc2nc(Nc3cc(C)[nH]n3)c(OC)c(N3CCC(CCN(C)C)CC3)n2)c(Cl)c1,< 1000
22,CCN(CC)c1nc(Sc2ccc(S(=O)(=O)CC)cc2)nc(Nc2cc(C)[nH]n2)c1OC,< 1000
23,COc1c(Nc2cc(C)[nH]n2)nc(Sc2ccc(S(=O)(=O)Cc3ccccc3[N+](=O)[O-])cc2)nc1N1CCN(CCN(C)C)CC1,< 1000

# The remaining lines, values ahead:
row,IC50 [nM],SMILES
1,< 1000,COc1c(Nc2cc(C)[nH]n2)nc(Sc2ccc(S(=O)(=O)Cc3ccccc3)cc2)nc1N1CCN(CCN(C)c2ccccc2)CC1
2,< 1000,COc1c(Nc2cc(C)[nH]n2)nc(Sc2ccc(NC(C)=O)cc2)nc1NC1CCNCC1
3,< 1000,Cc1ccc(Sc2nc(Nc3cc(C)[nH]n3)c(C)c(N3CCOCC3)n2)cc1
4,< 1000,COC(=O)c1ccccc1CS(=O)(=O)c1ccc(Sc2nc(Nc3cc(C)[nH]n3)c(OC)c(N3CCN(CCN(C)C)CC3)n2)cc1
5,100 to 1000,CCOc1c(Nc2cc(C)[nH]n2)nc(Sc2ccc(NC(=O)C3CCCC3)cc2)nc1N1CCN(C2CCN(C)CC2)CC1
6,< 1000,COc1c(Nc2cc(C)[nH]n2)nc(Sc2ccc(S(=O)(=O)Cc3ccccc3)cc2)nc1N1CCC(CCN2CCN(C)CC2)CC1
7,< 1000,COc1c(Nc2cc(C)[nH]n2)nc(Sc2ccc(S(=O)(=O)Cc3cccc(C(N)=O)c3F)cc2F)nc1N1CCOCC1
8,< 1000,COc1c(Nc2cc(C)[nH]n2)nc(Sc2ccc(S(=O)(=O)N(C)C)cc2)nc1N1CCN(CCN(C)C)CC1
9,< 1000,COc1c(Nc2cc(C)[nH]n2)nc(Sc2ccc(NC(C)=O)cc2)nc1N1CCC(CC(=O)O)CC1
10,< 1000,COc1c(Nc2cc(C)[nH]n2)nc(Sc2ccc(S(=O)(=O)C(C)(C)c3cccc([N+](=O)[O-])c3F)cc2F)nc1N1CCN(C(=O)CN(C)C)CC1
11,< 1000,Cc1cc(Nc2nc(Sc3ccc(NC(=O)C4CCCC4)cc3)nc3c2C(C)CC3)n[nH]1 (stereo not shown)
12,< 1000,COc1c(Nc2cc(C)[nH]n2)nc(Sc2ccc(NC(C)=O)cc2)nc1N1CC2CCC(C1)N2CCN1CCN(C)CC1
13,< 1000,COc1c(Nc2cc(C)[nH]n2)nc(Sc2ccc(S(=O)(=O)Cc3cccc([N+](=O)[O-])c3F)cc2F)nc1N1CCN(C)CC1
14,< 1000,COc1c(Nc2cc(C)[nH]n2)nc(Sc2ccc(NC(N)=O)cc2)nc1N1CCN(CCN(C)C)CC1
15,< 1000,Cc1ccc(Sc2nc(Nc3cc(C)[nH]n3)c(C)c(N3CCCCC3)n2)cc1
16,< 1000,Cc1cc(Nc2cc(C)[nH]n2)nc(Sc2ccc(NC(=O)C3CC3)cc2)n1
17,< 1000,COc1c(Nc2cc(C)[nH]n2)nc(Sc2ccc(NC(C)=O)cc2)nc1NC1CCN(C)CC1
18,< 1000,COc1ccc(CS(=O)(=O)c2ccc(Sc3nc(Nc4cc(C)[nH]n4)c(OC)c(N4CCOCC4)n3)c(F)c2)cc1
19,< 1000,COc1c(Nc2cc(C)[nH]n2)nc(Sc2ccc(S(=O)(=O)Cc3cccc(Cl)c3)cc2)nc1N1CCN(CCN(C)C)CC1
20,100 to 1000,CCOc1c(Nc2cc(C)[nH]n2)nc(Sc2ccc(NC(=O)C3CCCC3)cc2)nc1N1CCN(C)CC1
21,< 1000,COc1c(Nc2cc(C)[nH]n2)nc(Sc2ccc(NC(=O)C3CC3)cc2)nc1N1CCN(C2CCN(C)CC2)CC1
